Results taken from the supplement of paper PMC4862054.

Key:
HDQ-P1 [1] = details: 72 h
Outline: (§1)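 Breast cancer cell lines (20 µl suspension) were seeded into 384-well plates holding compound at 5 concentrations in 10-fold steps over a compound-specific 10,000-fold range, then incubated 72 h. Cell death was read first by CellTox Green fluorescence (485/520 nm), then viability by CellTiter-Glo luminescence after 10 min at room temperature. Each plate was normalised to 0.1 % DMSO and a positive kill control. EC50 was fitted from the dose-response curves and censored at the top concentration.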

MDA-MB-468 [2] = details: 72 h
Outline: as §1

BT-474 [3] = details: 72 h
Outline: as §1

HCC1937 = test: normalised viability (% of control), CellTiter-Blue; higher = more viable cells (about 100 = DMSO control); details: incubation time: 72 h
Outline: (§2)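 Vehicle (100) and a positive kill control (0) anchored the normalisation of each plate, and Z'-factor was used for quality control. Breast cancer cell lines in 20 µl suspension were incubated 72 h over compound in 5 µl medium in 384-well plates, followed by CellTiter-Blue at 560/590 nm. The value is normalised viability at a single listed concentration of the series.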

HCC1143 = test: as above; details: incubation time: 72 h
Outline: as §2

HDQ-P1 [4] = test: as above; details: incubation time: 72 h
Outline: as §2

SK-BR-3 = test: as above; details: incubation time: 72 h
Outline: as §2

MDA-MB-468 [5] = test: as above; details: incubation time: 72 h
Outline: as §2

BT-474 [6] = test: as above; details: incubation time: 72 h
Outline: as §2

DU-4475 = test: as above; details: incubation time: 72 h
Outline: as §2

BT-549 = test: as above; details: incubation time: 72 h
Outline: as §2

CAL-51 = test: as above; details: incubation time: 72 h
Outline: as §2

MFM-223 = test: as above; details: incubation time: 72 h
Outline: as §2

Hs578T = test: as above; details: incubation time: 72 h
Outline: as §2

CAL-120 = test: as above; details: incubation time: 72 h
Outline: as §2

MDA-MB-231 = test: as above; details: incubation time: 72 h
Outline: as §2

MDA-MB-453 = test: as above; details: incubation time: 72 h
Outline: as §2

CAL-85-1 = test: as above; details: incubation time: 72 h
Outline: as §2

CAL-148 = test: as above; details: incubation time: 72 h
Outline: as §2

## Cc1ccc([N+](=O)[O-])cc1S(=O)(=O)N(C)/N=C/c1cnc2ccc(Br)cn12 [PIK-75]
HDQ-P1 [1]
  EC50, CellTiter-Glo: 32.5 nM
MDA-MB-468 [2]
  EC50, CellTiter-Glo: 27.4 nM
BT-474 [3]
  EC50, CellTiter-Glo: 26.1 nM

## CC(=O)N(O)CCCCCNC(=O)CCC(=O)N(O)CCCCCNC(=O)CCC(=O)N(O)CCCCCN [Deferoxamine]
HDQ-P1 [1]
  EC50, CellTiter-Glo: 1850 nM
MDA-MB-468 [2]
  EC50, CellTiter-Glo: 815 nM

## CC(=O)c1c(C)c2cnc(Nc3ccc(N4CCNCC4)cn3)nc2n(C2CCCC2)c1=O [Palbociclib]
MDA-MB-468 [2]
  EC50, CellTiter-Glo: 181 nM
BT-474 [3]
  EC50, CellTiter-Glo: 352 nM

## O=C1CN2Cc3c(ccc(Cl)c3Cl)N=C2N1 [Anagrelide]
HCC1937; 10 nM
  normalised viability: 95.6%
HCC1937; 1000 nM
  normalised viability: 82.5%
HCC1937; 10000 nM
  normalised viability: 77.8%
HCC1143; 10 nM
  normalised viability: 83.5%
HCC1143; 1000 nM
  normalised viability: 87.8%
HCC1143; 10000 nM
  normalised viability: 83.2%
HDQ-P1 [4]; 3 nM
  normalised viability: 116%
HDQ-P1 [4]; 30 nM
  normalised viability: 95%
HDQ-P1 [4]; 100 nM
  normalised viability: 99.2%
SK-BR-3; 10 nM
  normalised viability: 119%
SK-BR-3; 1000 nM
  normalised viability: 110%
SK-BR-3; 10000 nM
  normalised viability: 107%
MDA-MB-468 [5]; 10 nM
  normalised viability: 106%
MDA-MB-468 [5]; 1000 nM
  normalised viability: 103%
MDA-MB-468 [5]; 10000 nM
  normalised viability: 111%
BT-474 [6]; 10 nM
  normalised viability: 126%
BT-474 [6]; 1000 nM
  normalised viability: 132%
BT-474 [6]; 10000 nM
  normalised viability: 130%
DU-4475; 3 nM
  normalised viability: 89.5%
DU-4475; 30 nM
  normalised viability: 79.5%
DU-4475; 100 nM
  normalised viability: 96.1%
BT-549; 10 nM
  normalised viability: 88.7%
BT-549; 1000 nM
  normalised viability: 89.1%
BT-549; 10000 nM
  normalised viability: 99.4%
CAL-51; 3 nM
  normalised viability: 110%
CAL-51; 30 nM
  normalised viability: 96.5%
CAL-51; 100 nM
  normalised viability: 84.3%
MFM-223; 10 nM
  normalised viability: 100%
MFM-223; 1000 nM
  normalised viability: 99%
MFM-223; 10000 nM
  normalised viability: 104%
Hs578T; 10 nM
  normalised viability: 101%
Hs578T; 1000 nM
  normalised viability: 90.9%
Hs578T; 10000 nM
  normalised viability: 88.2%
CAL-120; 10 nM
  normalised viability: 91.3%
CAL-120; 1000 nM
  normalised viability: 91.9%
CAL-120; 10000 nM
  normalised viability: 86.2%
MDA-MB-231; 10 nM
  normalised viability: 103%
MDA-MB-231; 1000 nM
  normalised viability: 95.5%
MDA-MB-231; 10000 nM
  normalised viability: 104%
MDA-MB-453; 3 nM
  normalised viability: 110%
MDA-MB-453; 30 nM
  normalised viability: 102%
MDA-MB-453; 100 nM
  normalised viability: 98.5%
CAL-85-1; 3 nM
  normalised viability: 102%
CAL-85-1; 30 nM
  normalised viability: 84.7%
CAL-85-1; 100 nM
  normalised viability: 97.1%
CAL-148; 3 nM
  normalised viability: 96.5%
CAL-148; 30 nM
  normalised viability: 102%
CAL-148; 100 nM
  normalised viability: 103%
BT-474 [3]
  EC50, CellTiter-Glo: > 10000 nM
